ChEMBL document CHEMBL3832067, “DailyMed|setid=d28bec8f-762e-4f05-a20d-96a42970d6a7 | Estradiol - estradiol patch|Mylan Pharmaceuticals Inc”

What was measured:
[1] = (§1) Evaluation of pharmacokinetic parameters for Estradiol after multiple topical applying Estradiol transdermal systems to the abdomen or the buttocks of 17 healthy, postmenopausal female subjects.; format: ADME, organism-based; design: dose 0.075 mg/day, dose 0.1 mg/day, dose 0.0375 mg/day, dose 0.05 mg/day, route topical to abdomen, route topical to buttocks; conditions: human, in vivo, topical or ocular; dose 0.05 mg/day, dosed compound id 17, dosed compound name ESTRADIOL, gender female, regimen Multiple dose, route topical to abdomen, tissue Plasma; read-out: Cmin(80hr)
Homo sapiens = experiment: as §1; format: ADME, organism-based; design: dose 0.075 mg/day, dose 0.1 mg/day, dose 0.0375 mg/day, dose 0.05 mg/day, route topical to abdomen, route topical to buttocks; conditions: in vivo, topical_or_ocular, dosed compound id 17, dosed compound name ESTRADIOL, gender female, regimen Multiple dose, tissue Plasma
[2] = dose 0.0375 mg/day, route topical to abdomen
[3] = dose 0.075 mg/day, route topical to abdomen
[4] = dose 0.1 mg/day, route topical to abdomen
[5] = dose 0.1 mg/day, route topical to buttocks

concentration at 80 h [1]: 0.041 ng/mL | Cavg (Homo sapiens; [2]): 0.034 ng/mL | Cmin(84hr) (Homo sapiens; [2]): 0.03 ng/mL | Cavg (Homo sapiens; dose 0.05 mg/day, route topical to abdomen): 0.057 ng/mL | Cavg (Homo sapiens; [3]): 0.072 ng/mL | Cmin(84hr) (Homo sapiens; [3]): 0.06 ng/mL | Cavg (Homo sapiens; [4]): 0.089 ng/mL | Cmin(84hr) (Homo sapiens; [4]): 0.09 ng/mL | Cavg (Homo sapiens; [5]): 0.104 ng/mL | Cmin(84hr) (Homo sapiens; [5]): 0.085 ng/mL
Structure (SMILES): C[C@]12CC[C@@H]3c4ccc(O)cc4CC[C@H]3[C@@H]1CC[C@@H]2O [ESTRADIOL]
